# According to patent US8952024B2, “Herbicidal pyrimidone derivatives” (E I du Pont de Nemours and Company, priority 2009, dated 2015):
# How the values were obtained:
# Type in all cases: in vivo
# [1] = system: giant foxtail (Setaria faberii); assay: Test A pre-/postemergence plant response
# Outline: (§1)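 Both pre- and postemergence treatments are applied simultaneously, using chemicals formulated in a non-phytotoxic solvent mixture with surfactant. Postemergence plants are 2–10 cm high with one to two leaves. After approximately ten days in a greenhouse, injury is scored visually from 0 (none) to 100 (complete control) relative to untreated plants.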
# corn (Zea mays) = assay: Test A pre-/postemergence plant response
# Outline: as §1
# [2] = system: wheat (Triticum aestivum); assay: Test A pre-/postemergence plant response
# Outline: as §1
# [3] = system: barnyardgrass (Echinochloa crus-galli); assay: Test A pre-/postemergence plant response
# Outline: as §1
# [4] = system: morningglory (Ipomoea spp.); assay: Test A pre-/postemergence plant response
# Outline: as §1
# [5] = system: pigweed (Amaranthus retroflexus); assay: Test A pre-/postemergence plant response
# Outline: as §1
# [6] = system: large crabgrass (Digitaria sanguinalis); assay: Test A pre-/postemergence plant response
# Outline: as §1
# [7] = system: velvetleaf (Abutilon theophrasti); assay: Test A pre-/postemergence plant response
# Outline: as §1
# rice (Oryza sativa) = assay: Test B flooded paddy test; settings: for Plant response rating, Flood, Rice: 250 g ai/ha, flooded paddy test, visual rating on 0 to 100 scale (0 no effect, 100 complete control) after 13 to 15 days; for Plant response rating, Rice: Flood (flooded paddy test), 13 to 15 days
# Outline: (§2)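 Post-flood paddy application: compounds are introduced into water 3 cm deep over the soil, reaching plants at the 2-leaf stage. The water level is maintained, and after 13–15 days under greenhouse conditions, response is judged by eye relative to controls, where 100 means complete control.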
# [8] = system: umbrella sedge (Cyperus difformis); assay: Test B flooded paddy test; settings: for Plant response rating, Flood, Sedge, Umbrella: 250 g ai/ha, flooded paddy test, visual rating on 0 to 100 scale (0 no effect, 100 complete control) after 13 to 15 days; for Plant response rating, Sedge, Umbrella: Flood (flooded paddy test), 13 to 15 days
# Outline: as §2
# [9] = system: barnyardgrass (Echinochloa crus-galli); assay: Test B flooded paddy test; settings: for Plant response rating, Flood, Barnyardgrass: 250 g ai/ha, flooded paddy test, visual rating on 0 to 100 scale (0 no effect, 100 complete control) after 13 to 15 days; for Plant response rating, Barnyardgrass: Flood (flooded paddy test), 13 to 15 days
# Outline: as §2
# [10] = system: ducksalad (Heteranthera limosa); assay: Test B flooded paddy test; settings: for Plant response rating, Flood, Ducksalad: 250 g ai/ha, flooded paddy test, visual rating on 0 to 100 scale (0 no effect, 100 complete control) after 13 to 15 days; for Plant response rating, Ducksalad: Flood (flooded paddy test), 13 to 15 days
# Outline: as §2
# [11] = system: winter barley (Hordeum vulgare); assay: Test B postemergence plant response
# Outline: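 Plants grown in peat/vermiculite medium were sprayed postemergence at 2–18 cm height (1- to 4-leaf stage). After 13–15 days in the greenhouse, response was rated visually against untreated controls on a 0–100 scale (0 no effect, 100 complete control).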
# [12] = Postemergence, 125 g ai/ha, visual injury, 0 to 100 scale (0 no effect, 100 complete control), approx. ten days
# [13] = Postemergence, 500 g ai/ha, 0 to 100 scale, 0 = no effect, 100 = complete control, approx. ten days
# [14] = Preemergence, 125 g ai/ha, 0 to 100 scale, 0 = no effect, 100 = complete control
# [15] = Preemergence, 500 g ai/ha, visual injury, 0 to 100 scale (0 no effect, 100 complete control), approx. ten days
# [16] = 31 g ai/ha, scale of 0 to 100 where 0 is no effect and 100 is complete control
# [17] = 62 g ai/ha, scale of 0 to 100 where 0 is no effect and 100 is complete control
# [18] = 125 g ai/ha, scale 0 to 100, 0 is no effect, 100 is complete control
# [19] = 31 g ai/ha, postemergence, scale 0 to 100, 0 is no effect, 100 is complete control
# [20] = Postemergence, 250 g ai/ha, scale 0 to 100 (0 no effect, 100 complete control)
smiles,measurement,setting,value
O=C1CCCC(O)=C1C(=O)c1cnc(-c2cccc(Cl)c2)n(-c2ccc(Cl)cc2)c1=O [Compound 64],"Foxtail, Giant plant response rating",[1]; [12],60
same,"Plant response rating, Foxtail, Giant",[1]; [13],80
same,"Plant response rating, Foxtail, Giant",[1]; [14],50
same,"Plant response rating, Foxtail, Giant",[1]; [15],70
same,Corn plant response rating,corn (Zea mays); [12],0
same,"Plant response rating, Corn",corn (Zea mays); [13],60
same,"Plant response rating, Corn",corn (Zea mays); [14],0
same,"Plant response rating, Corn",corn (Zea mays); [15],0
same,Wheat plant response rating,[2]; [12],0
same,"Plant response rating, Wheat",[2]; [13],30
same,"Plant response rating, Wheat",[2]; [14],0
same,"Plant response rating, Wheat",[2]; [15],0
same,Barnyardgrass plant response rating,[3]; [12],50
same,"Plant response rating, Barnyardgrass",[3]; [13],90
same,"Plant response rating, Barnyardgrass",[3]; [14],10
same,"Plant response rating, Barnyardgrass",[3]; [15],90
same,Morningglory plant response rating,[4]; [12],90
same,"Plant response rating, Morningglory",[4]; [13],100
same,"Plant response rating, Morningglory",[4]; [14],0
same,"Plant response rating, Morningglory",[4]; [15],0
same,Pigweed plant response rating,[5]; [12],90
same,"Plant response rating, Pigweed",[5]; [13],100
same,"Plant response rating, Pigweed",[5]; [14],80
same,"Plant response rating, Pigweed",[5]; [15],100
same,"Crabgrass, Large plant response rating",[6]; [12],80
same,"Plant response rating, Crabgrass, Large",[6]; [13],90
same,"Plant response rating, Crabgrass, Large",[6]; [14],80
same,"Plant response rating, Crabgrass, Large",[6]; [15],90
same,Velvetleaf plant response rating,[7]; [12],100
same,"Plant response rating, Velvetleaf",[7]; [13],100
same,"Plant response rating, Velvetleaf",[7]; [14],60
same,"Plant response rating, Velvetleaf",[7]; [15],90
same,"Plant response rating, Flood, Rice",rice (Oryza sativa),0
same,"Plant response rating, Rice",rice (Oryza sativa); [16],0
same,"Plant response rating, Rice",rice (Oryza sativa); [17],0
same,"Plant response rating, Rice",rice (Oryza sativa); [18],0
same,"Plant response rating, Flood, Sedge, Umbrella",[8],40
same,"Plant response rating, Sedge, Umbrella",[8]; [16],0
same,"Plant response rating, Sedge, Umbrella",[8]; [17],0
same,"Plant response rating, Sedge, Umbrella",[8]; [18],0
same,"Plant response rating, Flood, Barnyardgrass",[9],0
same,"Plant response rating, Barnyardgrass",[9]; [16],0
same,"Plant response rating, Barnyardgrass",[9]; [17],0
same,"Plant response rating, Barnyardgrass",[9]; [18],0
same,"Plant response rating, Flood, Ducksalad",[10],60
same,"Plant response rating, Ducksalad",[10]; [16],30
same,"Plant response rating, Ducksalad",[10]; [17],30
same,"Plant response rating, Ducksalad",[10]; [18],50
same,"Plant response rating, Barley",[11]; [19],15
same,"Plant response rating, Barley",[11]; [20],35
CCCCc1ncc(C(=O)C2=C(O)CCCC2=O)c(=O)n1-c1cccc(C)c1 [Compound 63],"Foxtail, Giant plant response rating",[1]; [12],60
same,"Plant response rating, Foxtail, Giant",[1]; [13],80
same,"Plant response rating, Foxtail, Giant",[1]; [14],50
same,"Plant response rating, Foxtail, Giant",[1]; [15],80
same,Corn plant response rating,corn (Zea mays); [12],10
same,"Plant response rating, Corn",corn (Zea mays); [13],50
same,"Plant response rating, Corn",corn (Zea mays); [14],0
same,"Plant response rating, Corn",corn (Zea mays); [15],0
same,Wheat plant response rating,[2]; [12],0
same,"Plant response rating, Wheat",[2]; [13],0
same,"Plant response rating, Wheat",[2]; [15],0
same,Barnyardgrass plant response rating,[3]; [12],70
same,"Plant response rating, Barnyardgrass",[3]; [13],90
same,"Plant response rating, Barnyardgrass",[3]; [14],10
same,"Plant response rating, Barnyardgrass",[3]; [15],90
same,Morningglory plant response rating,[4]; [12],100
same,"Plant response rating, Morningglory",[4]; [13],100
same,"Plant response rating, Morningglory",[4]; [14],10
same,"Plant response rating, Morningglory",[4]; [15],70
same,Pigweed plant response rating,[5]; [12],90
same,"Plant response rating, Pigweed",[5]; [13],100
same,"Plant response rating, Pigweed",[5]; [14],100
same,"Plant response rating, Pigweed",[5]; [15],100
same,"Crabgrass, Large plant response rating",[6]; [12],80
same,"Plant response rating, Crabgrass, Large",[6]; [13],90
same,"Plant response rating, Crabgrass, Large",[6]; [14],90
same,"Plant response rating, Crabgrass, Large",[6]; [15],100
same,Velvetleaf plant response rating,[7]; [12],100
same,"Plant response rating, Velvetleaf",[7]; [13],100
same,"Plant response rating, Velvetleaf",[7]; [14],80
same,"Plant response rating, Velvetleaf",[7]; [15],90
same,"Plant response rating, Flood, Rice",rice (Oryza sativa),10
same,"Plant response rating, Rice",rice (Oryza sativa); [16],0
same,"Plant response rating, Rice",rice (Oryza sativa); [17],0
same,"Plant response rating, Rice",rice (Oryza sativa); [18],0
same,"Plant response rating, Flood, Sedge, Umbrella",[8],0
same,"Plant response rating, Sedge, Umbrella",[8]; [16],0
same,"Plant response rating, Sedge, Umbrella",[8]; [17],0
same,"Plant response rating, Sedge, Umbrella",[8]; [18],0
same,"Plant response rating, Flood, Barnyardgrass",[9],10
same,"Plant response rating, Barnyardgrass",[9]; [16],0
same,"Plant response rating, Barnyardgrass",[9]; [17],0
same,"Plant response rating, Barnyardgrass",[9]; [18],0
same,"Plant response rating, Flood, Ducksalad",[10],40
same,"Plant response rating, Ducksalad",[10]; [16],0
same,"Plant response rating, Ducksalad",[10]; [17],20
same,"Plant response rating, Ducksalad",[10]; [18],40
same,"Plant response rating, Barley",[11]; [19],0
same,"Plant response rating, Barley","[11]; Postemergence, 62 g ai/ha, scale 0 (no effect) to 100 (complete control), 13 to 15 days",0
same,"Plant response rating, Barley","[11]; Postemergence, 125 g ai/ha, visual rating after 13 to 15 days, scale 0 (no effect) to 100 (complete control)",0
same,"Plant response rating, Barley",[11]; [20],0
